We go through four sequences from patent US20140322196A1 (priority 2011, published 2014).

One data set is described as follows: Cytotoxicity assay. Particulars: dog, MDCK cells, read-out: CC50 (cytotoxic concentration 50%). The data set is classed as cell-based, canine. The protocol: To establish the maximal non-cytotoxic dose of bLf and its derivatives, two-fold serial dilutions of each substance in culture medium were incubated at 37° C. with confluent MDCK cells grown in 96-well tissue culture microplates (Nalge Europe Ltd, Neerijse, Belgium). After 24 h, the following parameters were evaluated: cell morphology and viability (determined by neutral red staining) were examined by light microscopy and cell proliferation was evaluated quantitatively by microscopic counts after dispersion into individual cells with trypsin.

A further data set has as its system A/Roma-ISS/2/08 H1N1. Particulars: read-out: EC50 (effective concentration 50%); A/Roma-ISS/2/08 H1N1, MDCK cells.
The subject of a further data set is A/Parma/24/09 H1N1. The note with it: read-out: EC50 (effective concentration 50%); A/Parma/24/09 H1N1, MDCK cells.
The next data set deals with A/Parma/05/06 H3N2. The note with it: read-out: EC50 (effective concentration 50%); A/Parma/05/06 H3N2, MDCK cells.
A further data set can be described thus: Peptide stability. It counts as physicochemical.

Ends that are not written are not given here.

With “AGDDQGLDKCVPNSKEK [SEQ ID NO: 2, AGDDQGLDKCVPNSKEK]”, in the data set “Cytotoxicity assay”, the CC50 at 24 h is more than 25000 nM. Moreover, the values for the EC50 in the data set on A/Roma-ISS/2/08 H1N1, in the data set on A/Parma/24/09 H1N1 and in the data set on A/Parma/05/06 H3N2 were 0.0037 nM, 0.0034 nM and 0.0073 nM, respectively.
In the case of NGESSADWAKN [SEQ ID NO: 4, NGESSADWAKN], the CC50 at 24 h in “Cytotoxicity assay” is more than 25000 nM. The EC50 in the data set with A/Parma/05/06 H3N2 was 0.0225 nM.
As for “NGESTADWAKN (bovine lactoferrin peptide from 553 aa to 563 aa) [SEQ ID NO: 3, bLf C-lobe peptide, residues 553-563]”, the “stability of the peptide (in words)” value in the data set “Peptide stability” is on record as “poor stability”.
Turning to “SKHSSLDCVLRP [SEQ ID NO: 1, SKHSSLDCVLRP]”, the CC50 at 24 h in “Cytotoxicity assay” is more than 25000 nM. Further, the EC50 with A/Roma-ISS/2/08 H1N1 amounted to 0.004 nM; in the data set with A/Parma/24/09 H1N1, 0.0031 nM; in the data set on A/Parma/05/06 H3N2 it was 0.0058 nM.
